Results: the supplement of paper PMC10307832

Key:
Assay in all cases: relative viability (nuclei count vs DMSO), 5 days (fraction); higher = more cells survive
[1] = compound: C1=CC=C2C(=C1)N=C(S2)C(C#N)C3=NC(=NC=C3)NCCC4=CN=CC=C4 + CS(=O)(=O)N1CCN(Cc2cc3nc(-c4cccc5[nH]ncc45)nc(N4CCOCC4)c3s2)CC1 [Pictilisib] (partner 1 µM)
In short: (§1)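 Lung cancer cell lines in 1536-well plates were dosed by pin tool the day after seeding, either with one drug alone or with a fixed anchor-drug dose plus five library-drug doses (not always all listed) in √10 steps. After 5 days, cells were fixed and their nuclei stained in one step (final 0.05% Triton X-100, 1% formaldehyde, 1 ug/ml Hoechst), then counted on 4× images. Relative viability is the nuclei count in treated wells divided by that in vehicle wells. Values are medians of duplicate plates.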

NVP-TAE684 + Linsitinib = compound: COc1cc(N2CCC(N3CCN(C)CC3)CC2)ccc1Nc1ncc(Cl)c(Nc2ccccc2S(=O)(=O)C(C)C)n1 [NVP-TAE684] + C[C@]1(O)C[C@@H](c2nc(-c3ccc4ccc(-c5ccccc5)nc4c3)c3c(N)nccn32)C1 [Linsitinib] (partner 1 µM)
In short: as §1

[2] = compound: C1=CC=C2C(=C1)N=C(S2)C(C#N)C3=NC(=NC=C3)NCCC4=CN=CC=C4 + CCNC(=O)c1noc(-c2cc(C(C)C)c(O)cc2O)c1-c1ccc(CN2CCOCC2)cc1 [Luminespib] (partner 0.01 µM)
In short: as §1

[3] = compound: C1=CC=C2C(=C1)N=C(S2)C(C#N)C3=NC(=NC=C3)NCCC4=CN=CC=C4 + Cc1nc(Nc2ncc(C(=O)Nc3c(C)cccc3Cl)s2)cc(N2CCN(CCO)CC2)n1 [Dasatinib] (partner 0.075 µM)
In short: as §1

Cell Line: UMC-11
- relative viability ([1]; first compound 0.005 µM): 0.717
- relative viability ([1]; first compound 0.01581 µM): 0.748
- relative viability ([1]; first compound 0.05 µM): 0.689
- relative viability ([1]; first compound 0.1581 µM): 0.877
- relative viability ([1]; first compound 0.5 µM): 0.777
- relative viability (NVP-TAE684 + Linsitinib; first compound 0.2 µM): 1.14
- relative viability (NVP-TAE684 + Linsitinib; first compound 0.6325 µM): 0.904
- relative viability (NVP-TAE684 + Linsitinib; first compound 2 µM): 0.282
- relative viability ([2]; first compound 0.005 µM): 0.735
- relative viability ([2]; first compound 0.01581 µM): 1.04
- relative viability ([2]; first compound 0.05 µM): 0.861
- relative viability ([2]; first compound 0.1581 µM): 1.03
- relative viability ([2]; first compound 0.5 µM): 0.957
- relative viability ([3]; first compound 0.005 µM): 0.257
- relative viability ([3]; first compound 0.01581 µM): 0.481
- relative viability ([3]; first compound 0.05 µM): 0.447
- relative viability ([3]; first compound 0.1581 µM): 0.583
- relative viability ([3]; first compound 0.5 µM): 0.379
